Measurements: PubChem BioAssay (NCI)
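Protocol summary: plate cells (96-well), add compound at 5 concentrations, incubate 48 h, interpolate endpoints linearly. GI50: concentration for 50% inhibition of growth. TGI: concentration producing complete growth inhibition.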

Legend:
Experiment in all cases: inhibition of tumour cell growth, NCI panel, 48 h
BT-549 breast = system: BT-549 breast
EKVX NSCLC = system: EKVX NSCLC
HCC-2998 colon = system: HCC-2998 colon
HCT-116 colon = system: HCT-116 colon
HL-60(TB) leukemia = system: HL-60(TB) leukemia
HT29 colon = system: HT29 colon
M14 melanoma = system: M14 melanoma
NCI-H460 lung = system: NCI-H460 lung
SK-MEL-28 melanoma = system: SK-MEL-28 melanoma
HS 578T breast = system: HS 578T breast

Cn1c2ccccc2c2c3c(c4c5ccccc5n(C)c4c21)C(=O)c1ccccc1C3=O
TGI (BT-549 breast): 52.6 µM
TGI (EKVX NSCLC): > 100 µM
TGI (HCC-2998 colon): > 100 µM
TGI (HCT-116 colon): > 100 µM
TGI (HL-60(TB) leukemia): > 100 µM
TGI (HT29 colon): > 100 µM
TGI (M14 melanoma): > 100 µM
TGI (NCI-H460 lung): > 100 µM
TGI (SK-MEL-28 melanoma): > 100 µM

O=C(NCc1ccc(Cl)cc1)c1cc2sccc2nc1C(F)(F)F
TGI (BT-549 breast): > 100 µM
TGI (EKVX NSCLC): > 100 µM
TGI (HCT-116 colon): > 100 µM
TGI (HS 578T breast): 47.6 µM
TGI (HT29 colon): > 100 µM
TGI (M14 melanoma): > 100 µM
TGI (SK-MEL-28 melanoma): > 100 µM

C/C(O)=C/c1nc2ccc([N+](=O)[O-])cc2nc1/C=C(/C)O
TGI (BT-549 breast): > 100 µM
TGI (EKVX NSCLC): > 100 µM
TGI (HCT-116 colon): > 100 µM
TGI (HL-60(TB) leukemia): > 100 µM
TGI (HS 578T breast): 85.3 µM
TGI (HT29 colon): > 100 µM
TGI (M14 melanoma): > 100 µM
TGI (NCI-H460 lung): 51.5 µM
TGI (SK-MEL-28 melanoma): > 100 µM

Cc1cc(=O)oc2cc(O)ccc12
TGI (BT-549 breast): > 100 µM
TGI (EKVX NSCLC): > 100 µM
TGI (HCC-2998 colon): > 100 µM
TGI (HCT-116 colon): > 100 µM
TGI (HL-60(TB) leukemia): > 100 µM
TGI (HS 578T breast): > 100 µM
TGI (HT29 colon): > 100 µM
TGI (NCI-H460 lung): > 100 µM
TGI (SK-MEL-28 melanoma): > 100 µM

NNc1nncn1N
TGI (BT-549 breast): > 100 µM
TGI (EKVX NSCLC): > 100 µM
TGI (HCT-116 colon): > 100 µM
TGI (HL-60(TB) leukemia): > 100 µM
TGI (HS 578T breast): > 100 µM
TGI (HT29 colon): > 100 µM
TGI (M14 melanoma): > 100 µM
TGI (NCI-H460 lung): > 100 µM
TGI (SK-MEL-28 melanoma): > 100 µM

Clc1ccc(N=c2oc3ccccc3cc2-c2nc3ccccc3[nH]2)c(Cl)c1
TGI (BT-549 breast): > 100 µM
TGI (EKVX NSCLC): > 100 µM
TGI (HCT-116 colon): > 100 µM
TGI (HL-60(TB) leukemia): > 100 µM
TGI (HS 578T breast): 78.3 µM
TGI (HT29 colon): > 100 µM
TGI (M14 melanoma): > 100 µM

Cc1ccc(S(=O)(=O)c2c(O)c3ccccc3n(C)c2=O)cc1
TGI (BT-549 breast): > 100 µM
TGI (EKVX NSCLC): > 100 µM
TGI (HCT-116 colon): > 100 µM
TGI (HL-60(TB) leukemia): > 100 µM
TGI (HS 578T breast): > 100 µM
TGI (HT29 colon): > 100 µM
TGI (M14 melanoma): > 100 µM
TGI (NCI-H460 lung): > 100 µM
TGI (SK-MEL-28 melanoma): > 100 µM

CC(=O)c1cc2ccccc2n(O)c1=N
TGI (EKVX NSCLC): > 100 µM
TGI (HCC-2998 colon): > 100 µM
TGI (HCT-116 colon): > 100 µM
TGI (HL-60(TB) leukemia): > 100 µM
TGI (HS 578T breast): > 100 µM
TGI (HT29 colon): > 100 µM
TGI (M14 melanoma): > 100 µM
TGI (NCI-H460 lung): > 100 µM
TGI (SK-MEL-28 melanoma): > 100 µM

CN(Cc1cnc2nc(N)nc(N)c2n1)c1ccc(C(=O)NC(CCC(=O)NC(P(=O)(O)O)P(=O)(O)O)C(=O)O)cc1 (centres undefined)
TGI (EKVX NSCLC): > 100 µM
TGI (HCT-116 colon): > 100 µM
TGI (HL-60(TB) leukemia): > 100 µM
TGI (HS 578T breast): > 100 µM
TGI (HT29 colon): > 100 µM
TGI (M14 melanoma): > 100 µM
TGI (NCI-H460 lung): > 100 µM
TGI (SK-MEL-28 melanoma): > 100 µM

COc1cc(S(=O)(=O)Nc2ccc(C3=NNC(c4ccccc4)C3)cc2)ccc1F (centres undefined)
GI50 (BT-549 breast): > 100 µM
TGI (BT-549 breast): > 100 µM
GI50 (EKVX NSCLC): 17.8 µM
TGI (EKVX NSCLC): > 100 µM
GI50 (HCC-2998 colon): 54.4 µM
TGI (HCC-2998 colon): > 100 µM
GI50 (HCT-116 colon): 17.3 µM
TGI (HCT-116 colon): > 100 µM
GI50 (HS 578T breast): 16.7 µM
TGI (HS 578T breast): 77.8 µM
GI50 (HT29 colon): 59.1 µM
TGI (HT29 colon): > 100 µM
GI50 (M14 melanoma): 27.6 µM
TGI (M14 melanoma): > 100 µM
GI50 (NCI-H460 lung): 32.3 µM
TGI (NCI-H460 lung): > 100 µM
GI50 (SK-MEL-28 melanoma): > 100 µM
TGI (SK-MEL-28 melanoma): > 100 µM

Nc1cc(N2CCCC2)nc(=O)n1Cc1ccccc1
TGI (BT-549 breast): > 100 µM
TGI (EKVX NSCLC): > 100 µM
TGI (HCT-116 colon): > 100 µM
TGI (HL-60(TB) leukemia): > 100 µM
TGI (HT29 colon): > 100 µM
TGI (M14 melanoma): > 100 µM
TGI (NCI-H460 lung): > 100 µM

O=C1/C(=C2\Sc3c(ccc(Cl)c3Cl)C2=O)Sc2c1ccc(Cl)c2Cl
TGI (BT-549 breast): > 100 µM
TGI (EKVX NSCLC): > 100 µM
TGI (HCC-2998 colon): > 100 µM
TGI (HCT-116 colon): > 100 µM
TGI (HS 578T breast): > 100 µM
TGI (HT29 colon): > 100 µM
TGI (M14 melanoma): > 100 µM
TGI (NCI-H460 lung): > 100 µM
TGI (SK-MEL-28 melanoma): > 100 µM

CC(=O)Oc1ccc(C2COc3cc(OC(C)=O)c(OC(C)=O)cc3C2)cc1 (centres undefined)
TGI (EKVX NSCLC): 32 µM
TGI (HCC-2998 colon): 46.8 µM
TGI (HCT-116 colon): 33.9 µM
TGI (HL-60(TB) leukemia): 20.3 µM
TGI (HT29 colon): > 81.5 µM
TGI (NCI-H460 lung): 47.3 µM
TGI (SK-MEL-28 melanoma): 34.2 µM

Oc1ccc(CCc2cc(O)cc(O)c2)cc1
TGI (BT-549 breast): > 100 µM
TGI (EKVX NSCLC): > 100 µM
TGI (HCT-116 colon): > 100 µM
TGI (HL-60(TB) leukemia): > 100 µM
TGI (HS 578T breast): > 100 µM
TGI (HT29 colon): > 100 µM
TGI (M14 melanoma): > 100 µM
TGI (NCI-H460 lung): > 100 µM
TGI (SK-MEL-28 melanoma): > 100 µM

Cc1cc(C)n(CN(Cn2nc(C)cc2C)C2CCCCC2)n1
TGI (BT-549 breast): 49.6 µM
TGI (EKVX NSCLC): 84.5 µM
TGI (HCC-2998 colon): 27.9 µM
TGI (HCT-116 colon): 45.6 µM
TGI (HS 578T breast): > 100 µM
TGI (HT29 colon): 42.4 µM
TGI (M14 melanoma): 36.8 µM
TGI (NCI-H460 lung): > 100 µM
TGI (SK-MEL-28 melanoma): 42.5 µM

Cn1cnc2c(sc3nc4ccccc4n32)c1=N
TGI (BT-549 breast): > 100 µM
TGI (EKVX NSCLC): > 100 µM
TGI (HCC-2998 colon): > 100 µM
TGI (HCT-116 colon): > 100 µM
TGI (HL-60(TB) leukemia): > 100 µM
TGI (HS 578T breast): > 100 µM
TGI (HT29 colon): > 100 µM
TGI (M14 melanoma): > 100 µM
TGI (SK-MEL-28 melanoma): > 100 µM
